Experimental data as given in patent publication US8454986B2, “Silver nanoparticles with specific surface area and a method for producing them” (Janssen Pharmaceutica N.V., priority 2008, dated 2013).

Columns and labels:
Assay type in all cases: cell-based
[1] = tested on: Candida albicans; test: Minimal inhibitory concentration, macrodilution method; settings: yeast; 24 h, 30° C.
Source text: (§1) For the determination of the minimal inhibitory concentration (MIC) of nanosilver against different bacteria and fungi, i.e. the lowest concentration at which these micro-organisms show an inhibition of growth, the following protocol was used: • Journal of Antimicrobial Chemotherapy Supplement (JAC [2001] 48, Suppl. S1), March 2006, Chapter 2: Determination of minimal inhibitory concentrations; Macrodilution method.
(§2) Cultures of Staphylococcus aureus, Pseudomonas aeruginosa and Candida albicans were grown overnight and diluted to 150×10^6 bacterial cells or 5×10^6 yeast cells per mL (according to an optical density measured at 610 nm). These stock solutions were further diluted 500 times, […]. The final culture was then two times diluted in the final microtiter plate, resulting in a final dilution of 1:1000.
(§3) The test compound was diluted into the microtiter cultures at a concentration range from 0.5 to 470 mg/L Ag. The microtiter plates were then incubated at 30° C. on a shaker. After 24 h the plates were taken out of the incubation oven and growth was compared with the control row, both visually and by OD measurement at 610 nm.

[2] = tested on: Pseudomonas aeruginosa; test: as above; settings: Gram negative; 24 h, 30° C.
Source text: as §1, §2, §3

[3] = tested on: Staphylococcus aureus; test: as above; settings: Gram positive; 24 h, 30° C.
Source text: as §1, §2, §3

[4] = tested on: Aspergillus niger; test: Minimal inhibitory concentration, spore culture; settings: mold

`O=[N+]([O-])[O-].[Ag+]` [silver nitrate] was tested, and the “Minimal Inhibitory Concentration (MIC) Candida albicans” value [1] was 12.5 mg Ag/L, the “Minimal Inhibitory Concentration (MIC) Pseudomonas aeruginosa” value [2] was 6.3 mg Ag/L and the “Minimal Inhibitory Concentration (MIC) staphylococcus aureus” value [3] was 12.5 mg Ag/L. The “Minimal Inhibitory Concentration (MIC) Aspergillus niger” value [4] was 25 mg Ag/L.
